We go through 27 compounds from PubChem BioAssay (NCI).

Values joined by “and” are separate entries in the source; they are usually repeats but may differ in a detail not shown here. Identical values can stand only once.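 Cultured in 96-well plates, cells were exposed to test compound for 48 hours across five concentrations. At the GI50, growth is halved. TGI marks complete inhibition of growth.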

Test systems include SK-OV-3 ovarian; SF-268 CNS; MOLT-4 leukemia; SK-MEL-2 melanoma; HL-60(TB) leukemia; EKVX NSCLC; KM12 colon.
Holding throughout (experiment): inhibition of tumour cell growth, NCI panel, 48 h

For the compound `CC(=O)OC1CC2C(C)(C)C(=O)C=C[C@]2(C)C2CCC3(C)C(c4ccoc4)C(=O)[C@H]4O[C@]43[C@]12C` (some centres undefined), the TGI in the assay with SK-OV-3 ovarian is over 100 µM; with SF-268 CNS it was over 100 µM; in the assay on MOLT-4 leukemia, 46.6 µM; in the assay with SK-MEL-2 melanoma, 43.4 µM; in the assay with HL-60(TB) leukemia, 42.3 µM; with EKVX NSCLC it was 89.2 µM.
Turning to `O=C1C[C@@H]2C(COC(=O)c3ccccc3)N(OCc3ccccc3)C[C@@H]2O1` (some centres undefined), the TGI in the assay on SK-OV-3 ovarian, in the assay with SF-268 CNS, in the assay with MOLT-4 leukemia, in the assay with SK-MEL-2 melanoma, in the assay with HL-60(TB) leukemia and in the assay with KM12 colon was over 100 µM in each case. Moreover, in the assay with EKVX NSCLC, the TGI was over 100 µM.
For the compound `CN1c2ccccc2N(C)C2C1N(C)c1ccccc1N2C` (centres undefined), the TGI in the assay with SF-268 CNS was 46.6 µM; in the assay with MOLT-4 leukemia it was 9.69 µM; in the assay on SK-MEL-2 melanoma it was 69.6 µM; in the assay on HL-60(TB) leukemia, 7 µM; in the assay on KM12 colon it was over 100 µM; with EKVX NSCLC, over 100 µM.
`Cc1ccc(S(=O)(=O)NC(=O)NC23CC4CC(CC(F)(C4)C2)C3)cc1`: the TGI in the assay on SK-OV-3 ovarian, with MOLT-4 leukemia, in the assay on SK-MEL-2 melanoma, in the assay on HL-60(TB) leukemia, with KM12 colon and in the assay with EKVX NSCLC was over 100 µM throughout.
`CC(=O)O[C@H]1CC[C@@]2(C)C(=CC[C@H]3C4=CC=C(C(C)=O)[C@@]4(C)CCC32)C1` (some centres undefined): the TGI with SK-OV-3 ovarian, in the assay on SF-268 CNS, with MOLT-4 leukemia, with HL-60(TB) leukemia, in the assay with KM12 colon and with EKVX NSCLC was over 100 µM each time.
As for `CC1(C)OC(=O)C=C([O-])O1.CC1(C)OC(=O)C=C([O-])O1.O=S(=O)([O-])c1ccc([O-])c2ncccc12.O=S(=O)([O-])c1ccc([O-])c2ncccc12.[Ti+4]`, the GI50 was over 100 µM with SK-OV-3 ovarian; 52 µM with SF-268 CNS; 47.8 µM in the assay on MOLT-4 leukemia; over 100 µM in the assay with SK-MEL-2 melanoma; 34.1 µM in the assay with HL-60(TB) leukemia; over 100 µM in the assay on KM12 colon. In the assay on EKVX NSCLC, the GI50 was over 100 µM. Moreover, the TGI in the assay on SK-OV-3 ovarian, in the assay on SF-268 CNS, in the assay with MOLT-4 leukemia, in the assay on SK-MEL-2 melanoma, in the assay with HL-60(TB) leukemia and in the assay with KM12 colon was over 100 µM each time. The same compound showed a TGI with EKVX NSCLC of over 100 µM.
Take `CCC(=O)C(C)C1=Nc2nnc(CCCCCCCc3nnc4n3C(=O)C(C(C)C(=O)CC)=N4)n2C1=O` (centres undefined): the TGI in the assay on SK-OV-3 ovarian, in the assay with SF-268 CNS, in the assay with MOLT-4 leukemia, in the assay with HL-60(TB) leukemia, with KM12 colon and in the assay with EKVX NSCLC was over 100 µM each time.
For the compound `COC1OC(CO)C(O)C(O)C1Br` (centres undefined), the TGI in the assay with SF-268 CNS, with MOLT-4 leukemia, with HL-60(TB) leukemia and with KM12 colon was over 100 µM throughout.
Take `CN1NC2(CCCCC2)ON=C1c1ccccc1`: the TGI in the assay with SK-OV-3 ovarian, in the assay with SF-268 CNS, in the assay on MOLT-4 leukemia, in the assay on HL-60(TB) leukemia, with KM12 colon and with EKVX NSCLC was over 100 µM each time.
As to `C1CCN(c2nsc(N3CCCCC3)n2)CC1`, the TGI in the assay on SK-OV-3 ovarian, in the assay with SF-268 CNS, with MOLT-4 leukemia, in the assay on SK-MEL-2 melanoma, in the assay on HL-60(TB) leukemia and with KM12 colon was over 100 µM throughout. Further, the TGI in the assay with EKVX NSCLC was over 100 µM.
`COc1ccc2c(c1OC)C1=C(C2=O)c2cc3c(cc2CCN1)OCO3`: the TGI with SF-268 CNS is over 100 µM; with MOLT-4 leukemia, 83.9 µM; in the assay with SK-MEL-2 melanoma, 66.3 µM; in the assay on HL-60(TB) leukemia it was 53.9 µM; in the assay on KM12 colon, 78 µM; in the assay on EKVX NSCLC, over 100 µM.
In the case of `COCC(=O)CP(=O)(OC)OC`, the TGI in the assay with SK-OV-3 ovarian, in the assay with SF-268 CNS, in the assay with MOLT-4 leukemia, in the assay on SK-MEL-2 melanoma, in the assay with HL-60(TB) leukemia and in the assay with KM12 colon was over 100 µM in each case. For the same compound, the TGI in the assay with EKVX NSCLC was over 100 µM.
As for `CCNC(=O)C#CC(=O)NCC`, the TGI is over 100 µM with SK-OV-3 ovarian; over 100 µM in the assay with SF-268 CNS; over 100 µM in the assay on MOLT-4 leukemia; over 100 µM in the assay on SK-MEL-2 melanoma; over 53.9 µM in the assay with HL-60(TB) leukemia; over 100 µM with KM12 colon. The same compound returned a TGI in the assay on EKVX NSCLC of over 100 µM. The GI50 in the assay on SF-268 CNS, in the assay on MOLT-4 leukemia, with SK-MEL-2 melanoma, with HL-60(TB) leukemia, in the assay on KM12 colon and in the assay with EKVX NSCLC was over 10 µM throughout.
As for `C(CCC[Te][Te]CCCCCCOC1CCCCO1)CCOC1CCCCO1` (centres undefined), the TGI in the assay with SK-OV-3 ovarian came to 80.7 µM; in the assay with SF-268 CNS, 41.2 µM; in the assay with MOLT-4 leukemia, 46.6 µM; in the assay on SK-MEL-2 melanoma, 28.3 µM; in the assay with HL-60(TB) leukemia, 37.9 µM; with KM12 colon it was 28.9 µM.
Regarding `CC(=O)OCCOCNC(=S)N/N=C(\C)c1cnc2ccccc2n1`, the TGI in the assay with SK-OV-3 ovarian is over 100 µM; with SF-268 CNS, over 100 µM; in the assay on MOLT-4 leukemia, over 100 µM; with SK-MEL-2 melanoma it was over 100 µM; in the assay on HL-60(TB) leukemia it was 80.8 µM; with KM12 colon, over 100 µM. The same compound yielded a TGI with EKVX NSCLC of over 100 µM.
`COc1ccc(C(N)=O)cc1N=NN(C)C`: the TGI in the assay on SK-OV-3 ovarian, with SF-268 CNS, with MOLT-4 leukemia, in the assay on SK-MEL-2 melanoma, in the assay with HL-60(TB) leukemia and with KM12 colon was over 100 µM throughout. This compound also gave a TGI in the assay with EKVX NSCLC of over 100 µM.
For the compound `CN(CN1C(=O)C2Cc3ccccc3CN2C1=O)c1ccccn1` (centres undefined), the TGI with SF-268 CNS, in the assay with MOLT-4 leukemia, with SK-MEL-2 melanoma, with HL-60(TB) leukemia and in the assay on KM12 colon was over 100 µM in each case.
`C=C=C(CC)C(C(=O)OC)N(CC)CC` (centres undefined): the TGI in the assay on SK-OV-3 ovarian, in the assay with SF-268 CNS, in the assay on MOLT-4 leukemia, with HL-60(TB) leukemia, in the assay with KM12 colon and in the assay with EKVX NSCLC was over 100 µM throughout.
Turning to `COc1cccc(NC(=O)CC(=O)N2N=C(N(CCC#N)c3ccccc3C)CC2c2ccccc2)c1` (centres undefined), the TGI in the assay on SK-OV-3 ovarian, with SF-268 CNS, with MOLT-4 leukemia, with SK-MEL-2 melanoma, with HL-60(TB) leukemia and in the assay on KM12 colon was over 100 µM throughout. Also, in the assay on EKVX NSCLC, the TGI was over 100 µM.
For `Cn1c(=O)nc2n(-c3cccc(F)c3)c3ccccc3nc-2c1=O`, the TGI is over 100 µM in the assay on SK-OV-3 ovarian; over 100 µM in the assay on SF-268 CNS; 54.1 µM with MOLT-4 leukemia; 52.6 µM in the assay with SK-MEL-2 melanoma; over 100 µM in the assay on KM12 colon; 32.5 µM with EKVX NSCLC.
`Cc1c(C(=O)c2ccccc2C(=O)O)c2ccccc2n1C`: the TGI with SK-OV-3 ovarian, with MOLT-4 leukemia, in the assay with SK-MEL-2 melanoma, with HL-60(TB) leukemia, in the assay on KM12 colon and with EKVX NSCLC was over 100 µM each time.
For `O=C(O)/C(=C/c1c(O)ccc2ccccc12)c1csc(-c2nc(/C(=C\c3c(O)ccc4ccccc34)C(=O)O)cs2)n1`, the TGI in the assay with SK-OV-3 ovarian was found to be 26.8 µM; in the assay with SF-268 CNS, 26.3 µM; in the assay on MOLT-4 leukemia, 36.9 µM; in the assay on SK-MEL-2 melanoma, 10.2 µM; in the assay with HL-60(TB) leukemia, 26.4 µM; with KM12 colon, 53.2 µM. Besides, in the assay with EKVX NSCLC, the TGI was over 100 µM.
On to `CO/C1=C\C(C)=C\C(C)C(O)C(C)C/C(C)=C/C=C/C(OC)C(C(C)C(O)C(C)C2(O)CC(O)C(C)C(C(C)C)O2)OC1=O` (centres undefined), for which the TGI with SK-OV-3 ovarian is 33.6 µM; with SF-268 CNS, 19.5 µM; in the assay on MOLT-4 leukemia, 11.7 µM; in the assay on SK-MEL-2 melanoma, 0.0141 µM and 0.0178 µM; with HL-60(TB) leukemia, 0.0136 µM; in the assay with KM12 colon, 15 µM. For the same compound, the TGI in the assay with EKVX NSCLC is 4.93 µM.
Regarding `CCOC(=O)C1(Cc2ccccc2)CCCCCN1` (centres undefined), the TGI in the assay on SK-OV-3 ovarian, in the assay with SF-268 CNS, with HL-60(TB) leukemia and with EKVX NSCLC was over 100 µM each time.
As for `NC(=O)N/N=C/C(/C=N/NC(N)=O)[N+](=O)[O-]`, the TGI with SK-OV-3 ovarian, in the assay with SF-268 CNS, in the assay with SK-MEL-2 melanoma, in the assay with HL-60(TB) leukemia, with KM12 colon and with EKVX NSCLC was over 100 µM throughout.
As to `O=c1cc2ccccc2nn1Cc1ccccc1Cl`, the TGI in the assay on SK-OV-3 ovarian, in the assay with SF-268 CNS, in the assay on SK-MEL-2 melanoma, in the assay with KM12 colon and with EKVX NSCLC was over 100 µM each time.
Consider `N=c1nnc(=O)c2c(s1)-n1ncc(C(=O)O)c1NN2`, for which the TGI in the assay on SK-OV-3 ovarian, in the assay with SF-268 CNS, in the assay on MOLT-4 leukemia, with HL-60(TB) leukemia, with KM12 colon and in the assay with EKVX NSCLC was over 100 µM each time.
